Key:
[1] = molecular target: T1, COX-1 (Homo sapiens, UniProt P23219); assay: Cell-based COX-1 inhibition; conditions: assay/species not specified
T1 construct: endogenous in cells; host or cells: one of: human washed platelets, canine washed platelets, or feline/canine/human whole blood
Experimental: Human peripheral blood obtained from healthy volunteers can be diluted to 1/10 volume with 3.8% sodium citrate solution. The platelet-rich plasma immediately obtained can be washed with 0.14 M sodium chloride containing 12 mM Tris-HCl (pH 7.4) and 1.2 mM EDTA. Platelets can then be washed with platelet buffer (Hanks buffer (Ca free) containing 0.2% BSA and 20 mM Hepes). Finally, the human washed platelets (HWP) can be suspended in platelet buffer at the concentration of 2.85×10^8 cells/ml and stored at room temperature until use. The HWP suspension (70 μl aliquots, final 2.0×10^7 cells/ml) can be placed in a 96-well U bottom plate and 10 μl aliquots of 12.6 mM calcium chloride added. […] The reaction can be stopped by addition of EDTA (final 7.7 mM) and TxB2 in the supernatant quantitated by using a radioimmunoassay kit (Amersham) according to the manufacturer's procedure.
Test drug compounds can be solubilized and diluted the day before the assay can be to be conducted with 0.1 mL of DMSO/9.9 mL of Hank's balanced salts solution (HBSS) and stored overnight at 4° C. […] The pg/mL of TXB2 can be calculated from the standard line included on each plate, from which it can be possible to calculate the percent inhibition of COX-1 and the IC50 values for the test drug compounds. […]
COX-2 selectivity can be determined by ratio in terms of IC50 value of COX-1 inhibition to COX-2 inhibition. […]

[2] = molecular target: T2, COX-2 (Homo sapiens, UniProt P35354); assay: Cell-based COX-2 inhibition (canine, feline or human assays); conditions: from IC50 COX-1 vs COX-2
T2 sequence (P35354 18-604): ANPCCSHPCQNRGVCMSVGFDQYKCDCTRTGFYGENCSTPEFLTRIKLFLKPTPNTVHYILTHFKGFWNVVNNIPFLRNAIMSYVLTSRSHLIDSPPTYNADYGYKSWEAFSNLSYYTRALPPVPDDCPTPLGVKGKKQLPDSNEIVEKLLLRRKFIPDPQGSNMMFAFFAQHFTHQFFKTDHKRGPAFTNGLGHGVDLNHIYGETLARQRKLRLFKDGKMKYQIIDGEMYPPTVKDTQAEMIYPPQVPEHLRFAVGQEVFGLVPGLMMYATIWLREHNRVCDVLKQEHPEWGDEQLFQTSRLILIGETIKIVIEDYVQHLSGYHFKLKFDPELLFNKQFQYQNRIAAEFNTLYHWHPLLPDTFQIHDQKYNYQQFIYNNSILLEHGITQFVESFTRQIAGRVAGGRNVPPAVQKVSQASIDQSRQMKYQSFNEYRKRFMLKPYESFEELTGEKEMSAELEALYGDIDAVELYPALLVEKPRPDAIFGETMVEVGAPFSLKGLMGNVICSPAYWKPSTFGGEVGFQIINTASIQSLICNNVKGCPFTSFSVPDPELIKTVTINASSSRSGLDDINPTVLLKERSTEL
Experimental: The human cell based COX-2 assay can be carried out as previously described (Moore et al., Inflam. Res., 45, 54, 1996). Confluent human umbilical vein endothelial cells (HUVECs, Morinaga) in a 96-well flat bottom plate can be washed with 80 ml of RPMI1640 containing 2% FBS and incubated with hIL-1β (final concentration 300 U/ml, R & D Systems) at 37° C. for 24 hours. After washing, the activated HUVECs can be incubateed with test compound (final concentration; 0.1 nM-1 μM) dissolved in DMSO (final concentration; less than 0.01%) at 37° C. for 20 minutes and stimulated with A23187 (final concentration […]) in Hanks buffer containing 0.2% BSA, 20 mM Hepes at 37° C. for 15 minutes. 6-Keto-PGF1α, stable metabolite of PGI2, in the supernatant can be quantitated by using a radioimmunoassay method (antibody; Preseptive Diagnostics, SPA; Amersham).
A canine histocytoma (macrophage-like) cell line from the American Type Culture Collection designated as DH82, can be used in setting up the protocol for evaluating the COX-2 inhibition activity of various test drug compounds. […] The EIA can be performed for prostaglandin E2 (PGE2) and the pg/mL concentration of PGE2 can be calculated from the standard line included on each plate. […] The results are averaged and a single COX-1:COX-2 ratio is calculated. […]

T1 sequence (P23219 24-599): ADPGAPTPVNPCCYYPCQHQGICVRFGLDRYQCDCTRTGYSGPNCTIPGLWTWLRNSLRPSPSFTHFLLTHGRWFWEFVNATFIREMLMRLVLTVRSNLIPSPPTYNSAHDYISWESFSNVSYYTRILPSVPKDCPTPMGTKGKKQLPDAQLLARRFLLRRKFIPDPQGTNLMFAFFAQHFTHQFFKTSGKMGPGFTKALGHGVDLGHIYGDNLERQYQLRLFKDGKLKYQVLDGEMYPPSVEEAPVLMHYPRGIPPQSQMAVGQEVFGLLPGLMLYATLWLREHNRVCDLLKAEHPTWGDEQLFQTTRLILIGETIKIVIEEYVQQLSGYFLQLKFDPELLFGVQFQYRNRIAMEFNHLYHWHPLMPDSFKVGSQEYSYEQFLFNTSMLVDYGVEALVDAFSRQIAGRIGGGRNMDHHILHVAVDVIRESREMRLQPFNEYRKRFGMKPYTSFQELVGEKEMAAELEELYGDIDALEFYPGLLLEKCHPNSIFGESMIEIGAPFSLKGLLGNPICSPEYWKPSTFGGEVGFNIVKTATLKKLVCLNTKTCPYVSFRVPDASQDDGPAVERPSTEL

## Cc1cc(C)cc(NC(=O)N2C(=O)C(C(=O)c3cnccn3)c3cc(C)c(F)cc32)c1 (centres unmarked) [6-Fluoro-5-methyl-2-oxo-3-(pyrazine-2-carbonyl)-2,3-dihydro-indole-1-carboxylic acid (3,5-dimethyl-phenyl)-amide]
[1]
  IC50: > 150 µM
[2]
  selectivity for COX-2 (COX-1/COX-2 IC50): no selectivity for COX-2

Reference: patent US6846818B2, “Selective inhibitors of cyclooxygenase-2” (Pfizer Inc., priority 2002, dated 2005)
